# Laboratory results: PubChem BioAssay (NCI)
# Where “and” joins values, the source holds several entries; their conditions need not be identical. Equal values may be shown once.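 Assay format: 96-well plates, 48-hour exposure. Abbreviation: GI50, concentration required for 50% inhibition of growth. The concentration for full growth arrest is given as TGI.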
# Tests used:
# Experiment in all cases: NCI tumour cell line growth inhibition, 48 h
# DLD-1 colon = test system: DLD-1 colon
# DMS 114 small cell lung = test system: DMS 114 small cell lung
# HOP-18 NSCLC = test system: HOP-18 NSCLC
# M19-MEL melanoma = test system: M19-MEL melanoma
# P388/ADR leukemia = test system: P388/ADR leukemia
# SN12K1 renal = test system: SN12K1 renal
# LXFL 529 NSCLC = test system: LXFL 529 NSCLC
# DMS 273 small cell lung = test system: DMS 273 small cell lung
# RXF-631 renal = test system: RXF-631 renal
# P388 leukemia = test system: P388 leukemia
Compound,TGI (DLD-1 colon),TGI (DMS 114 small cell lung),TGI (HOP-18 NSCLC),TGI (M19-MEL melanoma),TGI (P388/ADR leukemia),TGI (SN12K1 renal),TGI (LXFL 529 NSCLC),TGI (DMS 273 small cell lung),TGI (RXF-631 renal),TGI (P388 leukemia),GI50 (DMS 114 small cell lung)
C=C1C(O)C2(O)OCC34C(CC5C(C)=CC(=O)C(O)C5(C)C23)OC(=O)C(OC(=O)C/C=C(\C)CCCCC)C14 (stereo not drawn),0.159 µM,0.0161 µM,1.1 µM,0.0173 µM,0.454 µM,0.016 µM,,,,,
CC(C)(C)C1=Cc2cc3cc(C(C)(C)C)[nH]c(=O)c3cc2S(=O)(=O)N1,> 100 µM,44.4 µM,,40.7 µM,,,76.7 µM,,,,
CCC(C(=O)O)c1ccc(OCc2ccccc2)cc1 (stereo not drawn),> 100 µM,> 100 µM,,,,,> 100 µM,> 100 µM,,,
C/C(=N/NC(N)=S)c1ccc2ccccc2c1,> 100 µM,49.9 µM,,> 100 µM,,,> 100 µM,90.9 µM,,,
C=C1C(=O)OC2/C=C(\CO)C(OC(C)=O)CC(O)/C(C)=C/C(OC(=O)C(C)CC)C12 (stereo not drawn),26.5 µM,> 56.8 µM,38.5 µM,33 µM,,,28.3 µM,38 µM,> 100 µM,,
CCC12C[N+]3([O-])CCc4c([nH]c5ccccc45)C(C(=O)OC)(c4cc5c(cc4OC)N(C)C4C(O)(C(=O)OC)C(OC(C)=O)C6(CC)C=CCN7CCC54C76)CC(C3)C1O2 (stereo not drawn),30.9 µM,4.28 µM,47.5 µM,16 µM,,,24.6 µM,12.2 µM,,,
CCOC(=O)C1=C(C(C)=O)CSC(c2ccccc2)=N1,> 100 µM,> 100 µM,> 100 µM,> 100 µM,> 100 µM,> 100 µM,,> 100 µM,,> 100 µM,
COc1cc(/C=C/C(=O)O)ccc1C(=O)O/C=C/c1ccccc1,> 100 µM,> 100 µM,> 100 µM,> 100 µM,68.9 µM,> 100 µM,,> 100 µM,,> 100 µM,
CSC1CC2C(CC1(C)O)C2(C)C (stereo not drawn),> 100 µM,72.1 µM and > 100 µM,,> 100 µM,,,> 100 µM,> 100 µM,,,15.7 µM and > 100 µM
NC(=O)C(=O)N/N=C1/c2ccccc2CC1C1(O)C(=O)Nc2c(Cl)cc(Cl)cc21 (stereo not drawn),> 100 µM,> 100 µM,> 100 µM,> 100 µM,,,,> 100 µM,,,
CN(C)C(CN)CC1=C(CC(CN)N(C)C)CCC1 (stereo not drawn),> 100 µM,> 100 µM,> 100 µM,> 100 µM,> 100 µM,> 100 µM,,> 100 µM,,> 100 µM,
CCN(CC)CCNc1ccc2nnn3c4ccc(OC)cc4c(=O)c1c23,22 µM,21.2 µM,23.2 µM,26.3 µM,,,21.4 µM,,16.3 µM,,
COCOc1ccc(OC)cc1,> 100 µM,,> 100 µM,> 100 µM,> 100 µM,> 100 µM,,> 100 µM,,> 100 µM,
C/C(=C\c1ccccc1)C(=O)CCN1CCOCC1,33.4 µM,35.2 µM,32.3 µM,33.8 µM,> 55.1 µM,32.8 µM,,35.3 µM,,36.1 µM,
